Reference: PubChem BioAssay AID328 (DTP/NCI, 2004)
“And” between values parts separate entries of the source, which are not always exact repeats. Equal values may be shown once. Toxic doses and inconclusive results are not listed. Residues, ends and D or L forms follow the SMILES beside them. *: point of attachment. Cbz = O=C(OCc1ccccc1)*; Bn = c1ccc(C*)cc1; βAla = NCCC(=O)O

System: BDF1 mice, P388 leukemia ip, median survival T/C
Experiment: NCI In Vivo Anticancer Drug Screen. Data for tumor model P388 Leukemia (intraperitoneal) in B6D2F1 (BDF1) mice
Conditions: endpoint: median survival time, higher = longer survival
Outline: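 Steps: implant the tumour, treat one group with compound and another with vehicle, record survival, then divide treated by control.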

[1] = dose: 50.0 mg/kg/injection, schedule: Q01DX009 (ip), vehicle: saline with Tween-80
[2] = dose: 100.0 mg/kg/injection, schedule: Q01DX009 (ip), vehicle: saline with Tween-80
[3] = dose: 200.0 mg/kg/injection, schedule: Q01DX009 (ip), vehicle: saline with Tween-80
[4] = dose: 25.0 mg/kg/injection, schedule: Q04DX003 (ip), vehicle: Klucel (hydroxypropylcellulose) (HPC)
[5] = dose: 50.0 mg/kg/injection, schedule: Q04DX003 (ip), vehicle: Klucel (hydroxypropylcellulose) (HPC)
[6] = dose: 12.5 mg/kg/injection, schedule: Q01DX009 (ip), vehicle: saline
[7] = dose: 25.0 mg/kg/injection, schedule: Q01DX009 (ip), vehicle: saline
[8] = dose: 50.0 mg/kg/injection, schedule: Q01DX009 (ip), vehicle: saline
[9] = dose: 75.0 mg/kg/injection, schedule: Q01DX009 (ip), vehicle: saline
[10] = dose: 100.0 mg/kg/injection, schedule: Q04DX003 (ip), vehicle: saline with Tween-80
[11] = dose: 100.0 mg/kg/injection, schedule: Q01DX001 (ip), vehicle: Klucel (hydroxypropylcellulose) (HPC)
[12] = dose: 100.0 mg/kg/injection, schedule: Q04DX003 (ip), vehicle: Klucel (hydroxypropylcellulose) (HPC)
[13] = dose: 200.0 mg/kg/injection, schedule: Q01DX001 (ip), vehicle: Klucel (hydroxypropylcellulose) (HPC)
[14] = dose: 200.0 mg/kg/injection, schedule: Q04DX003 (ip), vehicle: Klucel (hydroxypropylcellulose) (HPC)
[15] = dose: 400.0 mg/kg/injection, schedule: Q01DX001 (ip), vehicle: Klucel (hydroxypropylcellulose) (HPC)
[16] = dose: 400.0 mg/kg/injection, schedule: Q04DX003 (ip), vehicle: Klucel (hydroxypropylcellulose) (HPC)

## CCCCCCCCCC(=O)NC(C)C(O)c1ccccc1 (stereo unspecified)
[1]
  T/C: 109 % of control
[2]
  T/C: 100 % of control
[3]
  T/C: 89 % of control

## O=c1c2ccccc2nc(-c2ccccc2Cl)n1/N=C/c1cccc([N+](=O)[O-])c1
[2]
  T/C: 93 % of control
[3]
  T/C: 100 % of control

## O=C(CCl)c1ccc[nH]1
[4]
  T/C: 95 % of control
[5]
  T/C: 91 % of control

## Cc1ccc(C(=O)C[S+](C)C)c(C)c1
dose: 10.46 mg/kg/injection, schedule: Q01DX001 (ip), vehicle: saline
  T/C: 109 % of control
[6]
  T/C: 100 % of control
dose: 20.93 mg/kg/injection, schedule: Q01DX001 (ip), vehicle: saline
  T/C: 100 % of control
[7]
  T/C: 105 % of control
dose: 41.87 mg/kg/injection, schedule: Q01DX001 (ip), vehicle: saline
  T/C: 100 % of control
[8]
  T/C: 100 % of control
dose: 56.25 mg/kg/injection, schedule: Q04DX003 (ip), vehicle: saline
  T/C: 108 % of control
[9]
  T/C: 100 % of control
dose: 112.5 mg/kg/injection, schedule: Q04DX003 (ip), vehicle: saline
  T/C: 95 % of control

## CN(C)c1ccc(/C=C/C2CC[N-]C3C(O)CCCC23)cc1.CN(C)c1ccc(/C=C/C2CC[N-]C3C(O)CCCC23)cc1.CN(C)c1ccc(/C=C/C2CC[N-]C3C(O)CCCC23)cc1.[Fe+3] (stereo unspecified)
dose: 100.0 mg/kg/injection, schedule: Q04DX002 (ip), vehicle: saline with Tween-80
  T/C: 110 % of control
dose: 200.0 mg/kg/injection, schedule: Q04DX002 (ip), vehicle: saline with Tween-80
  T/C: 122 % of control

## CCO/C=C/C(=O)NC(=O)OCC
[2]
  T/C: 98 % of control
[10]
  T/C: 95 % of control
[3]
  T/C: 107 % of control
dose: 200.0 mg/kg/injection, schedule: Q04DX003 (ip), vehicle: saline with Tween-80
  T/C: 95 % of control
dose: 400.0 mg/kg/injection, schedule: Q01DX009 (ip), vehicle: saline with Tween-80
  T/C: 109 % of control
dose: 400.0 mg/kg/injection, schedule: Q04DX003 (ip), vehicle: saline with Tween-80
  T/C: 90 % of control

## COc1ccc2nc(NCN3C(=O)c4ccccc4C3=O)sc2c1
[11]
  T/C: 104 % of control
dose: 100.0 mg/kg/injection, schedule: Q01DX009 (ip), vehicle: Klucel (hydroxypropylcellulose) (HPC)
  T/C: 109 % of control
[12]
  T/C: 100 % of control
[13]
  T/C: 100 % of control
dose: 200.0 mg/kg/injection, schedule: Q01DX009 (ip), vehicle: Klucel (hydroxypropylcellulose) (HPC)
  T/C: 104 % of control
[14]
  T/C: 100 % of control
[15]
  T/C: 95 % of control
dose: 400.0 mg/kg/injection, schedule: Q01DX009 (ip), vehicle: Klucel (hydroxypropylcellulose) (HPC)
  T/C: 104 % of control
[16]
  T/C: 100 % of control

## CC1=C(Cl)C(Cl)(Cl)C(=O)C(=O)C1(Cl)Cl
dose: 6.25 mg/kg/injection, schedule: Q01DX009 (ip), vehicle: other
  T/C: 100 % of control
dose: 12.5 mg/kg/injection, schedule: Q01DX009 (ip), vehicle: other
  T/C: 109 % of control
dose: 25.0 mg/kg/injection, schedule: Q01DX009 (ip), vehicle: other
  T/C: 113 % of control

## COC(=O)C(CSCc1ccccc1)NC(=O)C(CSCc1ccccc1)NC(=O)CCNC(=O)OCc1ccccc1 (stereo unspecified) ({Cbz-βAla}-Cys(Bn)-Cys(Bn)-OMe; configuration not given here)
[4]
  T/C: 102 % of control
[5]
  T/C: 100 % of control
[12]
  T/C: 95 % of control
[14]
  T/C: 93 % of control
[16]
  T/C: 93 % of control

## CCN(CC)CCCC(C)Nc1ccnc2cc(Cl)ccc12 (stereo unspecified)
dose: 6.2 mg/kg/injection, schedule: Q01DX010 (ip), vehicle: saline
  T/C: 100 % of control
[6]
  T/C: 113 % of control
dose: 12.5 mg/kg/injection, schedule: Q01DX010 (ip), vehicle: saline
  T/C: 90 % of control
[7]
  T/C: 109 % of control
dose: 25.0 mg/kg/injection, schedule: Q01DX010 (ip), vehicle: saline
  T/C: 95 % of control
[8]
  T/C: 109 % of control
dose: 50.0 mg/kg/injection, schedule: Q01DX010 (ip), vehicle: saline
  T/C: 100 % of control
[9]
  T/C: 104 % of control

## CC[C@@]1(O)C[C@H](OC2CC(N(C)C)C(OC3CC(O)C(OC4CCC(=O)C(C)O4)C(C)O3)C(C)O2)c2c(cc3c(c2O)C(=O)c2c(O)cccc2C3=O)[C@H]1C(=O)OC (stereo partly specified)
dose: 0.25 mg/kg/injection, schedule: Q01DX009 (ip), vehicle: water
  T/C: 100 % of control
dose: 0.5 mg/kg/injection, schedule: Q01DX009 (ip), vehicle: saline
  T/C: 116 % of control
dose: 2.0 mg/kg/injection, schedule: Q01DX009 (ip), vehicle: water
  T/C: 154 % of control
dose: 3.24 mg/kg/injection, schedule: Q04DX003 (ip), vehicle: water
  T/C: 169 % of control
dose: 4.0 mg/kg/injection, schedule: Q01DX009 (ip), vehicle: saline
  T/C: 166 % of control
dose: 4.0 mg/kg/injection, schedule: Q01DX009 (ip), vehicle: water
  T/C: 194 % of control
dose: 4.7 mg/kg/injection, schedule: Q04DX003 (ip), vehicle: water
  T/C: 116 % of control
dose: 5.4 mg/kg/injection, schedule: Q04DX003 (ip), vehicle: water
  T/C: 197 % of control
dose: 8.0 mg/kg/injection, schedule: Q01DX009 (ip), vehicle: saline
  T/C: 236 % of control
dose: 9.0 mg/kg/injection, schedule: Q04DX003 (ip), vehicle: water
  T/C: 203 % of control
dose: 9.4 mg/kg/injection, schedule: Q04DX003 (ip), vehicle: water
  T/C: 184 % of control

## O=[N+]([O-])c1ccc(/C=C/C=C\c2cccc(S(=O)(=O)F)c2)c(Cl)c1
[11]
  T/C: 90 % of control and 104 % of control
dose: 100.0 mg/kg/injection, schedule: Q01DX009 (ip), vehicle: acetone
  T/C: 112 % of control
[13]
  T/C: 93 % of control and 100 % of control
dose: 200.0 mg/kg/injection, schedule: Q01DX009 (ip), vehicle: acetone
  T/C: 108 % of control
[15]
  T/C: 100 % of control and 106 % of control
dose: 400.0 mg/kg/injection, schedule: Q01DX009 (ip), vehicle: acetone
  T/C: 95 % of control

## CCCCn1nnc2c(NN)nc(N)nc21
dose: 25.0 mg/kg/injection, schedule: Q01DX009 (ip), vehicle: saline with Tween-80
  T/C: 100 % of control
dose: 25.0 mg/kg/injection, schedule: Q04DX003 (ip), vehicle: saline with Tween-80
  T/C: 100 % of control
[1]
  T/C: 100 % of control
dose: 50.0 mg/kg/injection, schedule: Q04DX003 (ip), vehicle: saline with Tween-80
  T/C: 100 % of control
[10]
  T/C: 100 % of control

## O=C(/C=C/c1cccc(Br)c1)c1ccc(Cl)cc1
dose: 50.0 mg/kg/injection, schedule: Q01DX009 (ip), vehicle: other
  T/C: 120 % of control
dose: 50.0 mg/kg/injection, schedule: Q04DX003 (ip), vehicle: other
  T/C: 100 % of control
dose: 100.0 mg/kg/injection, schedule: Q01DX009 (ip), vehicle: other
  T/C: 120 % of control
dose: 100.0 mg/kg/injection, schedule: Q04DX003 (ip), vehicle: other
  T/C: 100 % of control
dose: 132.0 mg/kg/injection, schedule: Q01DX009 (ip), vehicle: other
  T/C: 100 % of control
dose: 200.0 mg/kg/injection, schedule: Q01DX009 (ip), vehicle: other
  T/C: 104 % of control
dose: 200.0 mg/kg/injection, schedule: Q04DX003 (ip), vehicle: other
  T/C: 90 % of control
dose: 300.0 mg/kg/injection, schedule: Q01DX009 (ip), vehicle: other
  T/C: 104 % of control

## C=C(Br)CNCCCCCC
dose: 4.68 mg/kg/injection, schedule: Q04DX003 (ip), vehicle: Klucel (hydroxypropylcellulose) (HPC)
  T/C: 95 % of control
dose: 9.37 mg/kg/injection, schedule: Q04DX003 (ip), vehicle: Klucel (hydroxypropylcellulose) (HPC)
  T/C: 100 % of control
dose: 12.5 mg/kg/injection, schedule: Q01DX009 (ip), vehicle: Klucel (hydroxypropylcellulose) (HPC)
  T/C: 109 % of control
dose: 18.75 mg/kg/injection, schedule: Q04DX003 (ip), vehicle: Klucel (hydroxypropylcellulose) (HPC)
  T/C: 108 % of control
dose: 25.0 mg/kg/injection, schedule: Q01DX009 (ip), vehicle: Klucel (hydroxypropylcellulose) (HPC)
  T/C: 118 % of control
dose: 37.5 mg/kg/injection, schedule: Q04DX003 (ip), vehicle: Klucel (hydroxypropylcellulose) (HPC)
  T/C: 86 % of control
dose: 50.0 mg/kg/injection, schedule: Q01DX009 (ip), vehicle: Klucel (hydroxypropylcellulose) (HPC)
  T/C: 113 % of control
